In brackets after ≈: the same amount, converted by molar mass.
Legend:
Autotaxin [1] = target: T1, Autotaxin (Rattus norvegicus, UniProt Q64610); experiment: Inhibition of recombinant rat ATX using LPC 18:1 as substrate after 2 hrs by rapidfire/MS-based analysis
Autotaxin [2] = target: T1, Autotaxin; experiment: Inhibition of ATX in rat whole blood using LPA 17:0 as substrate after 1 hr by LC-MS/MS analysis
physchem [3] = details: pH 2.2 buffer solution
Description: Aqueous solubility of the compound in pH 2.2 buffer solution after 24 hrs by LC-UV analysis

physchem [4] = details: pH 4.5 buffer solution
Description: Aqueous solubility of the compound in pH 4.5 buffer solution after 24 hrs by LC-UV analysis

physchem [5] = details: pH 6.8 buffer solution
Description: Aqueous solubility of the compound in pH 6.8 buffer solution after 24 hrs by LC-UV analysis

in vitro [6] = details: human, Caco-2
Description: Apparent permeability across apical to basolateral side in human Caco2 cells at 10 uM measured up to 90 mins

[7] = target: Voltage-gated inwardly rectifying potassium channel KCNH2 (Homo sapiens, UniProt Q12809)
Description: Inhibition of human ERG expressed in HEK293 cells by patch clamp assay

in vitro [8] = details: rat, liver microsomes
Description: Clearance in rat liver microsomes at 1 uM in presence of NADPH by LC-MS/MS analysis relative to hepatic blood flow

in vitro [9] = details: human, liver microsomes
Description: Clearance in human liver microsomes at 1 uM in presence of NADPH by LC-MS/MS analysis relative to hepatic blood flow

Voltage-gated inwardly rectifying potassium channel KCNH2, sequence (Q12809 whole entry): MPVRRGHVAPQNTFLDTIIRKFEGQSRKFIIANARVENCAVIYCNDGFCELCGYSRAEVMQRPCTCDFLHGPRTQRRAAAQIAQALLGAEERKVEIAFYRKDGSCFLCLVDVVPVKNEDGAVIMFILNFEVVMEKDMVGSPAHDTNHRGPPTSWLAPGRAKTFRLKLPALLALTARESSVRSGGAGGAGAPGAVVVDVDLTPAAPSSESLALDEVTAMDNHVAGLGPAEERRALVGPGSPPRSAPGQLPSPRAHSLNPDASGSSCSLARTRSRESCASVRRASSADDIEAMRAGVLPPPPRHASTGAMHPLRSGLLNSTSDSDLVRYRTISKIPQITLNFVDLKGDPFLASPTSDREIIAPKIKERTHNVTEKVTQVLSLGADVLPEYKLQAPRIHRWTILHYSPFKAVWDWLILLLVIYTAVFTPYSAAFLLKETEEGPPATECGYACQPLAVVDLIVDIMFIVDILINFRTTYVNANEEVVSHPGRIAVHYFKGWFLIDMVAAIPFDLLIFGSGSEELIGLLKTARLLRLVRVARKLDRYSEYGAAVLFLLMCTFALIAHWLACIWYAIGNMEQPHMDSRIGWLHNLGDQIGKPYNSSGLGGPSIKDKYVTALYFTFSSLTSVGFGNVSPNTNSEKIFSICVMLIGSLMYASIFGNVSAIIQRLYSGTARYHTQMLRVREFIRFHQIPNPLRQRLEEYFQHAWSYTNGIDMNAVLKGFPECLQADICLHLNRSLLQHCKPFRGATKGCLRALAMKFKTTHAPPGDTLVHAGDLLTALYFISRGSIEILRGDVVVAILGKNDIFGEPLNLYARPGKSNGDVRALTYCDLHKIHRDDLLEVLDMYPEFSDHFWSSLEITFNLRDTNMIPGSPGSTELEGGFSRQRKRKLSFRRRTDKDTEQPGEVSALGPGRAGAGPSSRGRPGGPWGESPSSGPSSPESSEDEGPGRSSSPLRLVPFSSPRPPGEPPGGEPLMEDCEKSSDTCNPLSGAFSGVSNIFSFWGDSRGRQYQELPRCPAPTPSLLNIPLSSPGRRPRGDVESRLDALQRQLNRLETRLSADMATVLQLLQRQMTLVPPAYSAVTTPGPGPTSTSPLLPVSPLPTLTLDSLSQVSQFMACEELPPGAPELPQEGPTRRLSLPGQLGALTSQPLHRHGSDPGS

CC(OC(=O)N1C[C@@H]2[C@@H](CNC(=O)c3ccc4[nH]c(=O)oc4c3)[C@@H]2C1)c1cc(Cl)cc(Cl)c1 (stereo not given in full)
IC50 (Autotaxin [1]): 66.9 nM | IC50 (Autotaxin [2]): 208 nM | solubility at 24 h (physchem [3]): < 1 µg/mL | solubility at 24 h (physchem [4]): < 1 µg/mL | solubility at 24 h (physchem [5]): < 1 µg/mL | Papp A→B at 1.5 h, 10 µM (in vitro [6]): 118 ×10⁻⁶ cm/s

O=C(NC[C@@H]1[C@H]2CN(C(=O)C3CC3c3cc(Cl)cc(Cl)c3)C[C@@H]12)c1ccc2[nH]c(=O)oc2c1 (stereo not given in full)
IC50 (Autotaxin [1]): 4.8 nM | IC50 (Autotaxin [2]): 2400 nM | IC50 [7]: 4700 nM | solubility at 24 h (physchem [3]): < 1 µg/mL | solubility at 24 h (physchem [4]): < 1 µg/mL | solubility at 24 h (physchem [5]): < 1 µg/mL | hepatic extraction ratio at 1 µM (in vitro [8]): > 0.22 | Papp A→B at 1.5 h, 10 µM (in vitro [6]): 64 ×10⁻⁶ cm/s

CC(C)(C)OC(=O)N1CCCC(COC(=O)N2C[C@@H]3[C@@H](CNC(=O)c4ccc5[nH]c(=O)oc5c4)[C@@H]3C2)C1 (stereo not given in full)
IC50 (Autotaxin [1]): 49 nM | IC50 (Autotaxin [2]): 6.9 nM

O=C(NC[C@@H]1[C@H]2CN(C(=O)N3CCc4c(Cl)cc(Cl)cc4C3)C[C@@H]12)c1ccc2[nH]c(=O)oc2c1
IC50 (Autotaxin [1]): 82.6 nM | solubility at 24 h (physchem [3]): < 1 µg/mL | solubility at 24 h (physchem [4]): < 1 µg/mL | solubility at 24 h (physchem [5]): < 1 µg/mL | hepatic extraction ratio at 1 µM (in vitro [8]): 0.53 | Papp A→B at 1.5 h, 10 µM (in vitro [6]): 47 ×10⁻⁶ cm/s

O=C(NC[C@@H]1[C@H]2CN(C(=O)NCc3cc(Cl)cc(Cl)c3)C[C@@H]12)c1ccc2[nH]c(=O)oc2c1
IC50 (Autotaxin [1]): 13.9 nM | IC50 (Autotaxin [2]): 77 nM | IC50 [7]: > 10000 nM | solubility at 24 h (physchem [3]): < 1 µg/mL | solubility at 24 h (physchem [4]): < 1 µg/mL | solubility at 24 h (physchem [5]): < 1 µg/mL | hepatic extraction ratio at 1 µM (in vitro [9]): 0.36 | hepatic extraction ratio at 1 µM (in vitro [8]): 0.35 | Papp A→B at 1.5 h, 10 µM (in vitro [6]): 2 ×10⁻⁶ cm/s

Cc1ccc(COC(=O)N2C[C@@H]3[C@@H](CNC(=O)c4ccc5[nH]c(=O)oc5c4)[C@@H]3C2)nc1
IC50 (Autotaxin [1]): 1530 nM | IC50 (Autotaxin [2]): 1610 nM | IC50 [7]: > 10000 nM | solubility at 24 h (physchem [3]): > 92 µg/mL | solubility at 24 h (physchem [4]): 66 µg/mL (≈ 156 µM) | solubility at 24 h (physchem [5]): 56 µg/mL (≈ 133 µM) | hepatic extraction ratio at 1 µM (in vitro [9]): 0.25 | hepatic extraction ratio at 1 µM (in vitro [8]): < 0.22 | Papp A→B at 1.5 h, 10 µM (in vitro [6]): 1 ×10⁻⁶ cm/s

O=C(NC[C@@H]1[C@H]2CN(C(=O)OCc3cc(Cl)cc(Cl)c3)C[C@@H]12)c1ccc2[nH]c(=O)oc2c1
IC50 (Autotaxin [1]): 3.1 nM | IC50 (Autotaxin [2]): 56 nM | IC50 [7]: > 10000 nM | solubility at 24 h (physchem [3]): < 1 µg/mL | solubility at 24 h (physchem [4]): < 1 µg/mL | solubility at 24 h (physchem [5]): < 1 µg/mL | hepatic extraction ratio at 1 µM (in vitro [9]): 0.41 | hepatic extraction ratio at 1 µM (in vitro [8]): 0.64 | Papp A→B at 1.5 h, 10 µM (in vitro [6]): 137 ×10⁻⁶ cm/s

N#Cc1cc(COC(=O)N2C[C@@H]3[C@@H](CNC(=O)N4CCc5c(O)noc5C4)[C@@H]3C2)cc(C(=O)OC(F)(F)F)c1
IC50 (Autotaxin [1]): 10 nM | IC50 [7]: > 10000 nM | solubility at 24 h (physchem [3]): < 1 µg/mL | solubility at 24 h (physchem [4]): < 1 µg/mL | solubility at 24 h (physchem [5]): > 113 µg/mL | hepatic extraction ratio at 1 µM (in vitro [9]): < 0.23 | hepatic extraction ratio at 1 µM (in vitro [8]): < 0.22

N#Cc1cc(COC(=O)N2C[C@@H]3[C@@H](CNC(=O)c4ccc5[nH]c(=O)oc5c4)[C@@H]3C2)cc(OC(F)(F)F)c1
IC50 (Autotaxin [1]): 1.9 nM | IC50 (Autotaxin [2]): 94 nM | IC50 [7]: > 10000 nM | solubility at 24 h (physchem [3]): < 1 µg/mL | solubility at 24 h (physchem [4]): < 1 µg/mL | solubility at 24 h (physchem [5]): < 1 µg/mL | hepatic extraction ratio at 1 µM (in vitro [9]): 0.48 | hepatic extraction ratio at 1 µM (in vitro [8]): 0.56 | Papp A→B at 1.5 h, 10 µM (in vitro [6]): 44 ×10⁻⁶ cm/s

— ChEMBL document CHEMBL4138254 (ACS Med Chem Lett, 2017)
